Assay results taken from patent US12194004B2, “Nano-delivery carrier for targeted tumor administration and application thereof” (Guizhou Provincial People's Hospital, priority 2023, dated 2025).

System: SKOV3 cells
Experiment: Cell viability detection with CCK-8 detection reagent
Format: cell-based
Settings: SKOV3 cells treated at different (increasing) concentrations for 24 h
Protocol: In order to verify whether RVT can cause death of the tumor cells, SKOV3 cells are treated with RVT at different concentrations for 24 h, and viability of the SKOV3 cells treated with RVT is detected by using a cell counting kit-8 (CCK-8) detection reagent.
In addition, the SKOV3 cells are treated with PEG-SPIO at different concentrations for 24 h, and the viability of the SKOV3 cells treated with PEG-SPIO is detected by using the CCK-8 detection reagent.
Furthermore, the SKOV3 cells are treated with RVT-encapsulated PEG-SPIO-RVT nanoparticles for 24 h, and the viability of the SKOV3 cells treated with RVT-encapsulated PEG-SPIO-RVT nanoparticles is detected by using the CCK-8 detection reagent. The results are the same as that of treating with RVT alone.

How did the “viability of the SKOV3 cells” value turn out when Oc1ccc(/C=C/c2cc(O)cc(O)c2)cc1 [RVT, 3,4′,5-trihydroxy-trans-stilbene] was run?
The value was “gradually shows a downward trend”.
